Like-named read-outs stand apart in the source and are kept apart here.
Columns and labels:
Type in all cases: cell-based
Enterobacteria = experiment: In vitro antibiotic susceptibility strip test, Enterobacteria; details: for Susceptibility class, Enterobacteria / Count in brackets, Enterobacteria: colonies from feces of ob/ob mice; for Susceptibility class, Enterobacteria: Mueller Hinton agar, strip test; for Count in brackets, Enterobacteria: fraction given, not defined; for Growth / susceptibility of fecal enterobacteria, in words: summary of Table 1
Bacteroides = experiment: In vitro antibiotic susceptibility strip test, Bacteroides; details: for Count in brackets, Bacteroides: fraction given, not defined
Lactobacillus = experiment: In vitro antibiotic susceptibility strip test, Lactobacillus; details: colonies from feces of ob/ob mice; for Susceptibility class, Lactobacillus: MRS/cystein agar, strip test; for Count in brackets, Lactobacillus: fraction given, not defined
Bifidobacteria = experiment: In vitro antibiotic susceptibility strip test, Bifidobacteria; details: colonies from feces of ob/ob mice; for Susceptibility class, Bifidobacteria: MRS/cystein agar, strip test; for Count in brackets, Bifidobacteria: fraction given, not defined
[1] = colonies from feces of ob/ob mice
[2] = colonies from feces of ob/ob mice, Brucella agar, strip test

Row | SMILES | Susceptibility class, Enterobacteria (Enterobacteria) | Count in brackets, Enterobacteria (Enterobacteria) | Growth / susceptibility of fecal enterobacteria, in words (Enterobacteria) | Susceptibility class, Bacteroides (Bacteroides) | Count in brackets, Bacteroides (Bacteroides; [1]) | Susceptibility class, Lactobacillus (Lactobacillus) | Count in brackets, Lactobacillus (Lactobacillus) | Susceptibility class, Bifidobacteria (Bifidobacteria) | Count in brackets, Bifidobacteria (Bifidobacteria) | Susceptibility class, Bacteroides (Bacteroides; [2])
1 | CC1(C)S[C@@H]2[C@H](NC(=O)[C@H](N)c3ccc(O)cc3)C(=O)N2[C@H]1C(=O)O [Amoxicillin, amoxicillin] | R | 0/19 | resistant | S/R (14/16) | S/R (14/16) | S | 33/33 | S | 3/3 | 
2 | CC1(C)S[C@@H]2[C@H](NC(=O)[C@H](N)c3ccccc3)C(=O)N2[C@H]1C(=O)O [Ampicillin, ampicillin] | S/R | 13/19 | only partially sensitive |  | 16/16 | S | 33/33 | S | 3/3 | S
3 | CCn1cc(C(=O)O)c(=O)c2cc(F)c(N3CCNCC3)cc21 [Norfloxacin, norfloxacin] | S | 19/19 | capable of suppressing the growth |  | 0/16 | S/R | 25/33 | R | 0/3 | R

Source: patent US8591880B2, “Gut flora and weight management” (priority 2007, dated 2013)
